# PMC8296708, “The pan HDAC inhibitor Givinostat improves muscle function and histological parameters in two Duchenne muscular dystrophy murine models expressing different haplotypes of the LTBP4 gene” (Skeletal Muscle, 2021)
# Experiments:
# mdx mice [1] = assay: Treadmill run to exhaustion test in mdx mice; format: in vivo, mouse (C57BL/10ScSn-Dmd^mdx/J); details: for Distance run: 37.5 mg/kg p.o.
# From the text: (§1) For the efficacy studies, C57BL/10 J (Stock No: 000665) wild type (wt) and C57BL/10ScSn-Dmd^mdx/J (Stock No: 001801) 7–8-week-old male mice, DBA/2J wt (Stock No: 000671), and D2.B10-Dmd^mdx/J (Stock No: 013141) 6–7-week-old male mice were purchased from The Jackson Laboratories (Bar Harbor, Maine, USA). After 5 days of acclimatization in the animal facility, mice were randomized into different treatment groups based on their BW. C57BL/10J wt mice were assigned to the naive wt group (healthy mice that received no treatment, but were subjected to functional tests), whereas mdx mice were assigned to the following groups (9 mice/group; 4–5 mice/cage): naive mdx (mice that received no treatment, but were subjected to functional tests), vehicle (0.5% methylcellulose, p.o.), and Givinostat (0.1, 0.3, 1, 5, 10, 25, and 37.5 mg/kg, p.o.). DBA/2J mice were assigned to the naive wt group (healthy mice that received no treatment, but were subjected to functional tests), whereas D2.B10 mice were assigned to the following groups (12–13 mice/group; 4–5 mice/gage): vehicle (filtered tap water, p.o.), Givinostat (1, 5, 10, and 37.5 mg/kg, p.o.), prednisone 1 mg/kg, and Deflazacort 1 mg/kg (i.p.).
# In the efficacy studies, Givinostat powder (ITF2357) was suspended in 0.5% methylcellulose (Sigma-Aldrich) and administered p.o. (by gavage) at the doses of 0.1, 0.3, 1, 5, 10, 25, and 37.5 mg/kg qdx5x15weeks (administration volume per mouse: 10 mL/kg) in mdx mice (see Additional Figure 1A). Vehicle-treated mdx mice received 0.5% methylcellulose suspension. Givinostat suspension was stored at + 4 °C, and it was freshly prepared every 7 days. Probably due to the impairment of their tongue and masticatory muscles, the oral gavage procedure turned out to be difficult to perform, and chronic treatment of D2.B10 mice by this route was considered to bear a high risk of damaging the esophagus. For this reason, Givinostat was administered in the drinking water. Givinostat was dissolved in filtered tap water and was administered in drinking water (throughout 24 h) for 105 days at the dose of 1, 5, 10, and 37.5 mg/kg/day, according to a daily estimate of water consumption of 4 ml/mouse/day. Water consumption was weekly monitored throughout the entire duration of the study weighing the bottle of each cage (maximum 4 mice per cage). Prednisone and Deflazacort powder (Sigma-Aldrich) was dissolved in 2% DMSO (Sigma-Aldrich) and diluted in sterile saline on injection days. Both drugs were administered weekly (for 15 weeks) by i.p. injection at the dose of 1 mg/kg in a volume of 10 mL/kg. Givinostat and steroid treatments started on days 7 and 9 of the experimental plan, respectively (see Additional Figure 1B). All mice were monitored daily and tolerability was evaluated on the basis of BW and clinical signs.
# Run to exhaustion performance of mdx and D2.B10 mice was evaluated every 14 or 21 days, respectively, using a treadmill apparatus (Ugo Basile SRL, Italy). The exhaustion protocol consisted in an initially horizontal running at 5 m/min for 5 min after which the speed was increased 1 m/min every minute until exhaustion (the procedure was compliant with the standard operating procedures of TREAT–NMD Neuromuscular Network). The test was concluded when mice remained for more than 10 s on the shocker plate (for both C57BL/10 J and mdx mice) or when D2.B10 mice reached a maximum number of shocks. Due to the excessive stress caused to D2.B10 mice by this functional test, a maximum number of 600 and 150 shocks was set. These experimental conditions were also applied to the DBA/2J wt healthy mice.
# After taking baseline readings for behavioral assays (FNmax and distance run by the animals), mice were re-randomized based on these two parameters, also considering the previous randomization performed on their BW.
# The grip strength and run to exhaustion tests were performed during the light-cycle phase, in the early hours of the morning (8:00–11:30 am). […]
# mdx mice [2] = assay: Grip strength test (maximal normalized strength, FNmax) in mdx mice; format: in vivo, mouse (C57BL/10ScSn-Dmd^mdx/J)
# From the text: as §1
# In the efficacy studies, Givinostat powder (ITF2357) was suspended in 0.5% methylcellulose (Sigma-Aldrich) and administered p.o. (by gavage) at the doses of 0.1, 0.3, 1, 5, 10, 25, and 37.5 mg/kg qdx5x15weeks (administration volume per mouse: 10 mL/kg) in mdx mice (see Additional Figure 1A). Vehicle-treated mdx mice received 0.5% methylcellulose suspension. Givinostat suspension was stored at + 4 °C, and it was freshly prepared every 7 days. […] Water consumption was weekly monitored throughout the entire duration of the study weighing the bottle of each cage (maximum 4 mice per cage). […] All mice were monitored daily and tolerability was evaluated on the basis of BW and clinical signs.
# In both efficacy studies, the effectiveness of treatments was evaluated every week by measuring the forelimb strength by a grip strength meter (Ugo Basile SRL, Italy). BW of mdx (see Additional Figure 2) and D2.B10 mice (see Additional Figure 3) was also measured in order to normalize the absolute grip strength of each mouse with respect to its BW. […] The highest recorded value of maximal normalized strength (FNmax) obtained for each mouse at all the time points (from T0 to T15) was used for further analysis.
# After taking baseline readings for behavioral assays (FNmax and distance run by the animals), mice were re-randomized based on these two parameters, also considering the previous randomization performed on their BW. […]
# Body weight of mdx mice = format: in vivo, mouse (C57BL/10ScSn-Dmd^mdx/J)
# Protocol: In the efficacy studies, Givinostat powder (ITF2357) was suspended in 0.5% methylcellulose (Sigma-Aldrich) and administered p.o. (by gavage) at the doses of 0.1, 0.3, 1, 5, 10, 25, and 37.5 mg/kg qdx5x15weeks (administration volume per mouse: 10 mL/kg) in mdx mice (see Additional Figure 1A). Vehicle-treated mdx mice received 0.5% methylcellulose suspension. Givinostat suspension was stored at + 4 °C, and it was freshly prepared every 7 days. Probably due to the impairment of their tongue and masticatory muscles, the oral gavage procedure turned out to be difficult to perform, and chronic treatment of D2.B10 mice by this route was considered to bear a high risk of damaging the esophagus. For this reason, Givinostat was administered in the drinking water. […] Water consumption was weekly monitored throughout the entire duration of the study weighing the bottle of each cage (maximum 4 mice per cage). […] All mice were monitored daily and tolerability was evaluated on the basis of BW and clinical signs.
# In both efficacy studies, the effectiveness of treatments was evaluated every week by measuring the forelimb strength by a grip strength meter (Ugo Basile SRL, Italy). BW of mdx (see Additional Figure 2) and D2.B10 mice (see Additional Figure 3) was also measured in order to normalize the absolute grip strength of each mouse with respect to its BW. […]
# D2.B10 mice = assay: Histopathological evaluation of severity of myodystrophy in D2.B10 mice; format: in vivo, mouse (D2.B10-Dmd^mdx/J); details: T8 and T16
# Protocol: In these experiments, the histopathological evaluation of muscle inflammatory infiltrate, adipose tissue deposition, regeneration, and degeneration of the muscular tissue was also performed. The severity of myodystrophy in the different muscles (TA, GAS and DIA) was quantified through a weighted histopathological method that considered some parameters scored by severity and extension of the injury: muscle degeneration/necrosis, regeneration, inflammatory infiltrate, interstitial reaction, and adipose tissue deposition. Each parameter was classified by severity (mild = 1, moderate = 2, and severe = 3) and extension (focal = 1, multifocal = 2, and diffuse = 3). The individual severity score was calculated for each animal and an average score per group was calculated.
smiles,measurement,setting,value
CCN(CC)Cc1ccc2cc(COC(=O)Nc3ccc(C(=O)NO)cc3)ccc2c1 [Givinostat],Distance run,mdx mice [1]; day 31,785 ± 97 m
same,Distance run,mdx mice [1]; day 44,693 ± 103 m
same,Distance run,mdx mice [1]; day 94,410 ± 40 m
same,Lowest effective dose on time to exhaustion,mdx mice [1]; day 94,0.3 mg/kg
same,Time to exhaustion,"mdx mice [1]; highest dose (37.5 mg/kg), day 94, vs vehicle",significantly prolonged the time to exhaustion
same,"Distance run, significance of doses lower than 37.5 mg/kg","mdx mice [1]; lower doses, trend of dose-response",did not reach significance
same,FNmax level on treatment day 49,"mdx mice [2]; 37.5 mg/kg p.o., transient",comparable to that of wt healthy mice
same,Effect on maximal normalized strength (FNmax),mdx mice [2]; 0.1-37.5 mg/kg p.o. qdx5x15weeks,"remarkable, dose-dependent increase of the FNmax"
same,Dose of maximal efficacy on FNmax,mdx mice [2]; p.o. qdx5x15weeks,37.5 mg/kg
same,Persistence of beneficial effect on FNmax,mdx mice [2]; vs vehicle,remained significant up to day 105
same,Body weight,"Body weight of mdx mice; 25 mg/kg, day 105 (vehicle 37.2 ± 0.8, p < 0.01)",32.9 ± 0.9 g
same,Body weight,"Body weight of mdx mice; 37.5 mg/kg, day 105 (vehicle 37.2 ± 0.8, p < 0.05)",33.1 ± 0.9 g
same,"Histological evaluation of inflammatory infiltrate, adipose tissue deposition, regeneration, degeneration",D2.B10 mice,not significantly different among the treatment groups
